Assay results taken from patent publication US9994547B2, “Heteroarylamide inhibitors of TBK1” (Takeda Pharmaceutical Company Limited, priority 2014, dated 2018).

These compounds were tested against Full length human TBK1 (Homo sapiens (Human), UniProt Q9UHD2) (assay: Inhibition of TBK1 Enzyme (Example A)). Conditions: -log(IC50), IC50 molar; 3 nM TBK1, 25 μM ATP, 60 min RT.
Type: biochemical
How it was run: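 Full-length N-His human TBK1 from Sf9 baculovirus was tested with 11-point 2.5-fold dilutions (1% DMSO) in Hepes pH 7.4, MgCl2, EDTA, Brij, DTT. After 60 min RT and EDTA quench, microfluidic conversion was fitted and reported as pIC50.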

Sequence of Full length human TBK1 (Q9UHD2 whole entry): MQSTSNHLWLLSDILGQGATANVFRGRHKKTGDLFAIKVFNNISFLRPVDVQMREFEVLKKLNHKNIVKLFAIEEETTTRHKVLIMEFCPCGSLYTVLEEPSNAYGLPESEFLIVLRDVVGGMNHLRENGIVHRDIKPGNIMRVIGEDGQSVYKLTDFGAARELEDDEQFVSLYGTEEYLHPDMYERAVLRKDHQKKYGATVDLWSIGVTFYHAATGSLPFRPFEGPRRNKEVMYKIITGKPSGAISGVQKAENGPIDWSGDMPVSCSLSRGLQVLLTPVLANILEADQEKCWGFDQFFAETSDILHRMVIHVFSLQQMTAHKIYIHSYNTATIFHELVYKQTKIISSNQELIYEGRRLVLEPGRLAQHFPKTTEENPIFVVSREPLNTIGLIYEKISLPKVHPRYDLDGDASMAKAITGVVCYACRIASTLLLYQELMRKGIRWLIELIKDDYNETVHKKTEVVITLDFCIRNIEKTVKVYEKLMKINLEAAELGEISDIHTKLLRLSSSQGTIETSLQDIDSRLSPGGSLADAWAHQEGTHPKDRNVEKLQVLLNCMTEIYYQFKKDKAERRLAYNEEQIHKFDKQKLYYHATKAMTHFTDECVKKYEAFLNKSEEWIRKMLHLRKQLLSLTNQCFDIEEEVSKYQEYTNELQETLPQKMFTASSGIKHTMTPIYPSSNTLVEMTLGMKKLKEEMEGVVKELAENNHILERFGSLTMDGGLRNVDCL

`CC[C@H](Nc1cc(-c2cnc(NC(=O)C3CC3)cn2)cnc1C#N)C(=O)N(C)CCO` [Example 70, (S)-N-(5-(6-cyano-5-((1-((2-hydroxyethyl)(methyl)amino)-1-oxobutan-2-yl)amino)pyridin-3-yl)pyrazin-2-yl)cyclopropanecarboxamide] and `CN(CCF)C(=O)C(CC(F)F)Nc1cc(-c2cnc(NC(=O)C3CC3)cn2)cnc1C#N` (centres unmarked) [Example 85, N-(5-(6-cyano-5-((4,4-difluoro-1-((2-fluoroethyl)(methyl)amino)-1-oxobutan-2-yl)amino)pyridin-3-yl)pyrazin-2-yl)cyclopropanecarboxamide] are the same in “TBK1 Inhibition (pIC50)” value: 7.1 for the first, 7.1 for the second.

Going from `CN(C(=O)CNc1cc(-c2cnc(NC(=O)C3CC3)cn2)cnc1C#N)C1CCOC1` (centres unmarked) [Example 71, N-(5-(6-cyano-5-((2-(methyl(tetrahydrofuran-3-yl)amino)-2-oxoethyl)amino)pyridin-3-yl)pyrazin-2-yl)cyclopropanecarboxamide] to `C[C@H]1COCCN1C(=O)CNc1cc(-c2cnc(NC(=O)C3CC3)cn2)cnc1C#N` [Example 84, (S)-N-(5-(6-cyano-5-((2-(3-methylmorpholino)-2-oxoethyl)amino)pyridin-3-yl)pyrazin-2-yl)cyclopropanecarboxamide], the “TBK1 Inhibition (pIC50)” value rises from 6.6 to 7.2.

`N#Cc1ncc(-c2cnc(NC(=O)C3CC3)cn2)cc1NCC(=O)N(CCO)CC(F)F` [Example 72, N-(5-(6-cyano-5-((2-((2,2-difluoroethyl)(2-hydroxyethyl)amino)-2-oxoethyl)amino)pyridin-3-yl)pyrazin-2-yl)cyclopropanecarboxamide] and `COCCN(CC(F)F)C(=O)CNc1cc(-c2cnc(NC(=O)C3CC3)cn2)cnc1C#N` [Example 82, N-(5-(6-cyano-5-((2-((2,2-difluoroethyl)(2-methoxyethyl)amino)-2-oxoethyl)amino)pyridin-3-yl)pyrazin-2-yl)cyclopropanecarboxamide] are the same in “TBK1 Inhibition (pIC50)” value: 7.8 for the first, 7.8 for the second.

`C[C@H](Nc1cc(-c2cnc(NC(=O)C3CC3)cn2)cnc1C#N)C(=O)N(C)CC1CC1` [Example 73, (S)-N-(5-(6-cyano-5-((1-((cyclopropylmethyl)(methyl)amino)-1-oxopropan-2-yl)amino)pyridin-3-yl)pyrazin-2-yl)cyclopropanecarboxamide] and `C[C@@H](Nc1cc(-c2cnc(NC(=O)C3CC3)cn2)cnc1C#N)C(=O)N(C)CC(F)F` [Example 83, (R)-N-(5-(6-cyano-5-((1-((2,2-difluoroethyl)(methyl)amino)-1-oxopropan-2-yl)amino)pyridin-3-yl)pyrazin-2-yl)cyclopropanecarboxamide] are the same in “TBK1 Inhibition (pIC50)” value: 7.0 for the first, 7.0 for the second.

First: C[C@H](Nc1cc(-c2cnc(NC(=O)C3CC3)cn2)cnc1C#N)C(=O)N(C)c1cccnc1 [Example 74, (S)-N-(5-(6-cyano-5-((1-(methyl(pyridin-3-yl)amino)-1-oxopropan-2-yl)amino)pyridin-3-yl)pyrazin-2-yl)cyclopropanecarboxamide]
Second: C[C@H](Nc1cc(-c2cnc(NC(=O)C3CC3)cn2)cnc1C#N)C(=O)N(C)[C@H](C)C#N [Example 88, N-(5-(6-cyano-5-(((S)-1-(((R)-1-cyanoethyl)(methyl)amino)-1-oxopropan-2-yl)amino)pyridin-3-yl)pyrazin-2-yl)cyclopropanecarboxamide]
The “TBK1 Inhibition (pIC50)” value of the first is lower: 5.5 for the first, 7.6 for the second.

First: N#Cc1ncc(-c2cnc(NC(=O)C3CC3)cn2)cc1NCC(=O)N1CCOC[C@@H]1CF [Example 75, (R)-N-(5-(6-cyano-5-((2-(3-(fluoromethyl)morpholino)-2-oxoethyl)amino)pyridin-3-yl)pyrazin-2-yl)cyclopropanecarboxamide]
Second: N#Cc1ncc(-c2cnc(NC(=O)C3CC3)cn2)cc1NCC(=O)N1CCC1C(F)(F)F (centres unmarked) [Example 94, N-(5-(6-cyano-5-((2-oxo-2-(2-(trifluoromethyl)azetidin-1-yl)ethyl)amino)pyridin-3-yl)pyrazin-2-yl)cyclopropanecarboxamide]
The “TBK1 Inhibition (pIC50)” value of the first is lower: 6.9 for the first, 7.3 for the second.

First: CN(Cc1cnccn1)C(=O)CNc1cc(-c2cnc(NC(=O)C3CC3)cn2)cnc1C#N [Example 76, N-(5-(6-cyano-5-((2-(methyl(pyrazin-2-ylmethyl)amino)-2-oxoethyl)amino)pyridin-3-yl)pyrazin-2-yl)cyclopropanecarboxamide]
Second: CCC(C#N)N(C)C(=O)CNc1cc(-c2cnc(NC(=O)C3CC3)cn2)cnc1C#N (centres unmarked) [Example 92, N-(5-(6-cyano-5-((2-((1-cyanopropyl)(methyl)amino)-2-oxoethyl)amino)pyridin-3-yl)pyrazin-2-yl)cyclopropanecarboxamide]
The “TBK1 Inhibition (pIC50)” value of the first is lower: 5.3 for the first, 6.2 for the second.

Compared with `COCCN(CC(F)(F)F)C(=O)CNc1cc(-c2cnc(NC(=O)C3CC3)cn2)cnc1C#N` [Example 77, N-(5-(6-cyano-5-((2-((2-methoxyethyl)(2,2,2-trifluoroethyl)amino)-2-oxoethyl)amino)pyridin-3-yl)pyrazin-2-yl)cyclopropanecarboxamide], `N#Cc1ncc(-c2cnc(NC(=O)C3CC3)cn2)cc1NCC(=O)N(CCCO)CC(F)(F)F` [Example 90, N-(5-(6-cyano-5-((2-((3-hydroxypropyl)(2,2,2-trifluoroethyl)amino)-2-oxoethyl)amino)pyridin-3-yl)pyrazin-2-yl)cyclopropanecarboxamide] is lower in “TBK1 Inhibition (pIC50)” value: 7.2 for the first, 5.6 for the second.

First: CN(C)C(=O)[C@@H](CC(F)F)Nc1cc(-c2cnc(NC(=O)C3CC3)cn2)cnc1C#N [Example 78, (R)-N-(5-(6-cyano-5-((1-(dimethylamino)-4,4-difluoro-1-oxobutan-2-yl)amino)pyridin-3-yl)pyrazin-2-yl)cyclopropanecarboxamide]
Second: CN(C)C(=O)[C@H](CC(F)F)Nc1cc(-c2cnc(NC(=O)C3CC3)cn2)cnc1C#N [Example 80, (S)-N-(5-(6-cyano-5-((1-(dimethylamino)-4,4-difluoro-1-oxobutan-2-yl)amino)pyridin-3-yl)pyrazin-2-yl)cyclopropanecarboxamide]
The “TBK1 Inhibition (pIC50)” value of the first is lower: 6.6 for the first, 7.4 for the second.

`C[C@H](Nc1cc(-c2cnc(NC(=O)C3CC3)cn2)cnc1C#N)C(=O)N(CCO)CC(F)F` [Example 79, (S)-N-(5-(6-cyano-5-((1-((2,2-difluoroethyl)(2-hydroxyethyl)amino)-1-oxopropan-2-yl)amino)pyridin-3-yl)pyrazin-2-yl)cyclopropanecarboxamide] and `C[C@H](Nc1cc(-c2cnc(NC(=O)C3CC3)cn2)cnc1C#N)C(=O)N(CC#N)CCO` [Example 93, (S)-N-(5-(6-cyano-5-((1-((cyanomethyl)(2-hydroxyethyl)amino)-1-oxopropan-2-yl)amino)pyridin-3-yl)pyrazin-2-yl)cyclopropanecarboxamide] are the same in “TBK1 Inhibition (pIC50)” value: 6.8 for the first, 6.8 for the second.

`C[C@H](Nc1cc(-c2cnc(NC(=O)C3CC3)cn2)cnc1C#N)C(=O)N1CCOC[C@@H]1C#N` [Example 81, N-(5-(6-cyano-5-(((S)-1-((S)-3-cyanomorpholino)-1-oxopropan-2-yl)amino)pyridin-3-yl)pyrazin-2-yl)cyclopropanecarboxamide] and `C[C@H](Nc1cc(-c2cnc(NC(=O)C3CC3)cn2)cnc1C#N)C(=O)N1CCOC[C@@H]1C` [Example 91, N-(5-(6-cyano-5-(((S)-1-((S)-3-methylmorpholino)-1-oxopropan-2-yl)amino)pyridin-3-yl)pyrazin-2-yl)cyclopropanecarboxamide] are within 0.2 log units of each other in “TBK1 Inhibition (pIC50)” value: 7.8 for the first, 7.7 for the second.

Going from `CC1CC1C(=O)Nc1cnc(-c2cnc(C#N)c(N[C@@H](C)C(=O)N(C)CC(F)F)c2)cn1` (stereo partly drawn) [Example 86, N-(5-(6-cyano-5-(((S)-1-((2,2-difluoroethyl)(methyl)amino)-1-oxopropan-2-yl)amino)pyridin-3-yl)pyrazin-2-yl)-2-methylcyclopropanecarboxamide] to `C[C@H](Nc1cc(-c2cnc(NC(=O)C3CC3)cn2)cnc1C#N)C(=O)N(C)[C@@H](C)C#N` [Example 89, N-(5-(6-cyano-5-(((S)-1-(((S)-1-cyanoethyl)(methyl)amino)-1-oxopropan-2-yl)amino)pyridin-3-yl)pyrazin-2-yl)cyclopropanecarboxamide], the “TBK1 Inhibition (pIC50)” value falls from 8.4 to 7.9.

Going from `N#CCN(CCO)C(=O)CNc1cc(-c2cnc(NC(=O)C3CC3)cn2)cnc1C#N` [Example 87, N-(5-(6-cyano-5-((2-((cyanomethyl)(2-hydroxyethyl)amino)-2-oxoethyl)amino)pyridin-3-yl)pyrazin-2-yl)cyclopropanecarboxamide] to `CN1CCN(C(=O)CNc2cc(-c3cnc(NC(=O)C4CC4)cn3)cnc2C#N)CC1` [Example 97, N-(5-(6-cyano-5-((2-(4-methylpiperazin-1-yl)-2-oxoethyl)amino)pyridin-3-yl)pyrazin-2-yl)cyclopropanecarboxamide], the “TBK1 Inhibition (pIC50)” value falls from 7.2 to 5.5.

In the case of `COCCN1CCN(C(=O)CNc2cc(-c3cnc(NC(=O)C4CC4)cn3)cnc2C#N)CC1` [Example 98, N-(5-(6-cyano-5-((2-(4-(2-methoxyethyl)piperazin-1-yl)-2-oxoethyl)amino)pyridin-3-yl)pyrazin-2-yl)cyclopropanecarboxamide], the “TBK1 Inhibition (pIC50)” value is reported as 5.1.

Same assay, conditions: -log(IC50), IC50 molar; 3 nM TBK1, 25 μM ATP, 60 min RT; read-out: TBK1 Inhibition (pIC50) (converted)

First: N#Cc1ncc(-c2cnc(NC(=O)C3CC3)cn2)cc1NCC(=O)N1CCO[C@@H]1C(F)(F)F [Example 95, (R)-N-(5-(6-cyano-5-((2-oxo-2-(2-(trifluoromethyl)oxazolidin-3-yl)ethyl)amino)pyridin-3-yl)pyrazin-2-yl)cyclopropanecarboxamide]
Second: N#Cc1ncc(-c2cnc(NC(=O)C3CC3)cn2)cc1NCC(=O)N1CCO[C@H]1C(F)(F)F [Example 96, (S)-N-(5-(6-cyano-5-((2-oxo-2-(2-(trifluoromethyl)oxazolidin-3-yl)ethyl)amino)pyridin-3-yl)pyrazin-2-yl)cyclopropanecarboxamide]
The IC50 of the first is 40-fold higher: 631 nM for the first, 15.8 nM for the second.
